Experimental data from the supplement of paper PMC13207355.

Columns and labels:
Settings in all cases: exposure time: 72 h
[1] = test system: E13 (patient-derived glioblastoma stem cells of classical subtype); assay: surviving fraction (nuclei count normalised to DMSO); higher = more cells surviving (less toxic)
[2] = test system: E21 (patient-derived glioblastoma stem cells of mesenchymal subtype); assay: as above
[3] = test system: E28 (patient-derived glioblastoma stem cells of classical subtype); assay: as above
[4] = test system: E31 (patient-derived glioblastoma stem cells of proneural subtype); assay: as above
[5] = test system: E34 (patient-derived glioblastoma stem cells of proneural subtype); assay: as above
[6] = test system: E57 (patient-derived glioblastoma stem cells of mesenchymal subtype); assay: as above
[7] = test system: FT3469 (normal neural stem cell line); assay: as above
[8] = test system: E13; assay: phenotypic distance (Euclidean, principal components) from DMSO controls (arbitrary units); higher = stronger morphological change
[9] = test system: E21; assay: as above
[10] = test system: E28; assay: as above
[11] = test system: E31; assay: as above
[12] = test system: E34; assay: as above
[13] = test system: E57; assay: as above
[14] = test system: FT3469; assay: as above
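For phenotypic distance (Euclidean, principal components) from DMSO controls in this document: cell Painting imaging in 384-well plates, CellProfiler features reduced to at least 20 principal components, Euclidean distance versus same-plate DMSO vehicle wells (0.1% v/v), median over six images per well.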
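For surviving fraction (nuclei count normalised to DMSO) in this document: nuclei counted by high-content imaging of Hoechst-stained cells in laminin-coated 384-well plates, relative to 0.1% DMSO vehicle wells, with staurosporine as cell-death control.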

Work on `COc1cc2c(cc1O)CC[C@@H]1[C@@H]2CC[C@]2(C)[C@@H](O)CC[C@@H]12` [2-methoxyestradiol] yielded a surviving fraction ([1]; 4.1 nM) of 0.992, a surviving fraction ([1]; 12.3 nM) of 0.961 and a surviving fraction ([1]; 37 nM) of 0.838. It also gave a surviving fraction ([1]; 111.1 nM) of 1.04, a surviving fraction ([1]; 333.3 nM) of 0.816 and a surviving fraction ([1]; 1000 nM) of 0.777. For the same molecule, the surviving fraction ([1]; 3000 nM) was 0.174, the surviving fraction ([2]; 4.1 nM) was 0.888 and the surviving fraction ([2]; 12.3 nM) was 0.932. For the same molecule, the surviving fraction ([2]; 37 nM) was 0.919, the surviving fraction ([2]; 111.1 nM) was 0.885 and the surviving fraction ([2]; 333.3 nM) was 0.928. It also gave a surviving fraction ([2]; 1000 nM) of 0.803, a surviving fraction ([2]; 3000 nM) of 0.257 and a surviving fraction ([3]; 4.1 nM) of 1.14. It also gave a surviving fraction ([3]; 12.3 nM) of 0.843, a surviving fraction ([3]; 37 nM) of 0.86 and a surviving fraction ([3]; 111.1 nM) of 0.687. For the same molecule, the surviving fraction ([3]; 333.3 nM) was 0.862, the surviving fraction ([3]; 1000 nM) was 0.768 and the surviving fraction ([3]; 3000 nM) was 0.41. For the same molecule, the surviving fraction ([4]; 4.1 nM) was 1.08, the surviving fraction ([4]; 12.3 nM) was 0.913 and the surviving fraction ([4]; 37 nM) was 0.985. For the same molecule, the surviving fraction ([4]; 111.1 nM) was 0.862, the surviving fraction ([4]; 333.3 nM) was 0.731 and the surviving fraction ([4]; 1000 nM) was 0.63. It also gave a surviving fraction ([4]; 3000 nM) of 0.194, a surviving fraction ([5]; 4.1 nM) of 0.925 and a surviving fraction ([5]; 12.3 nM) of 0.876. For the same molecule, the surviving fraction ([5]; 37 nM) was 1.11, the surviving fraction ([5]; 111.1 nM) was 1.07 and the surviving fraction ([5]; 333.3 nM) was 1.02. For the same molecule, the surviving fraction ([5]; 1000 nM) was 0.876, the surviving fraction ([5]; 3000 nM) was 0.388 and the surviving fraction ([6]; 4.1 nM) was 1.04. The surviving fraction ([6]; 12.3 nM) was 1.02, the surviving fraction ([6]; 37 nM) was 1.09 and the surviving fraction ([6]; 111.1 nM) was 1.06. The surviving fraction ([6]; 333.3 nM) was 1.03, the surviving fraction ([6]; 1000 nM) was 0.891 and the surviving fraction ([6]; 3000 nM) was 0.19. It also gave a surviving fraction ([7]; 4.1 nM) of 0.794, a surviving fraction ([7]; 12.3 nM) of 0.981 and a surviving fraction ([7]; 37 nM) of 1. The surviving fraction ([7]; 111.1 nM) was 0.858, the surviving fraction ([7]; 333.3 nM) was 0.846 and the surviving fraction ([7]; 1000 nM) was 0.855. For the same molecule, the surviving fraction ([7]; 3000 nM) was 0.527, the phenotypic distance ([8]; 4.1 nM) was 0.645 and the phenotypic distance ([8]; 12.3 nM) was 0.821. For the same molecule, the phenotypic distance ([8]; 37 nM) was 1.01, the phenotypic distance ([8]; 111.1 nM) was 1.47 and the phenotypic distance ([8]; 333.3 nM) was 0.958. For the same molecule, the phenotypic distance ([8]; 1000 nM) was 1.4, the phenotypic distance ([8]; 3000 nM) was 5.03 and the phenotypic distance ([9]; 4.1 nM) was 1. For the same molecule, the phenotypic distance ([9]; 12.3 nM) was 1.01, the phenotypic distance ([9]; 37 nM) was 0.858 and the phenotypic distance ([9]; 111.1 nM) was 1.42. It also gave a phenotypic distance ([9]; 333.3 nM) of 1.01, a phenotypic distance ([9]; 1000 nM) of 1.82 and a phenotypic distance ([9]; 3000 nM) of 6.05. The phenotypic distance ([10]; 4.1 nM) was 0.862, the phenotypic distance ([10]; 12.3 nM) was 1.15 and the phenotypic distance ([10]; 37 nM) was 0.941. For the same molecule, the phenotypic distance ([10]; 111.1 nM) was 1.27, the phenotypic distance ([10]; 333.3 nM) was 0.698 and the phenotypic distance ([10]; 1000 nM) was 1.54. It also gave a phenotypic distance ([10]; 3000 nM) of 3.97, a phenotypic distance ([11]; 4.1 nM) of 0.701 and a phenotypic distance ([11]; 12.3 nM) of 0.672. It also gave a phenotypic distance ([11]; 37 nM) of 0.712, a phenotypic distance ([11]; 111.1 nM) of 0.758 and a phenotypic distance ([11]; 333.3 nM) of 0.88. The phenotypic distance ([11]; 1000 nM) was 1.61, the phenotypic distance ([11]; 3000 nM) was 5.31 and the phenotypic distance ([12]; 4.1 nM) was 0.764. For the same molecule, the phenotypic distance ([12]; 12.3 nM) was 2.41, the phenotypic distance ([12]; 37 nM) was 0.956 and the phenotypic distance ([12]; 111.1 nM) was 0.641. For the same molecule, the phenotypic distance ([12]; 333.3 nM) was 0.508, the phenotypic distance ([12]; 1000 nM) was 1.21 and the phenotypic distance ([12]; 3000 nM) was 4.96. For the same molecule, the phenotypic distance ([13]; 4.1 nM) was 0.835, the phenotypic distance ([13]; 12.3 nM) was 1.06 and the phenotypic distance ([13]; 37 nM) was 0.97. It also gave a phenotypic distance ([13]; 111.1 nM) of 0.943, a phenotypic distance ([13]; 333.3 nM) of 0.975 and a phenotypic distance ([13]; 1000 nM) of 2.06. It also gave a phenotypic distance ([13]; 3000 nM) of 7.41, a phenotypic distance ([14]; 4.1 nM) of 1.02 and a phenotypic distance ([14]; 12.3 nM) of 0.62. The phenotypic distance ([14]; 37 nM) was 0.868, the phenotypic distance ([14]; 111.1 nM) was 0.854 and the phenotypic distance ([14]; 333.3 nM) was 0.793. For the same molecule, the phenotypic distance ([14]; 1000 nM) was 0.919 and the phenotypic distance ([14]; 3000 nM) was 3.47.

`CC(=O)OC[C@H]1O[C@@H]([S-])[C@H](OC(C)=O)[C@@H](OC(C)=O)[C@@H]1OC(C)=O.CCP(CC)CC.[Au+]` [Auranofin] was tested, and the surviving fraction ([1]; 4.1 nM) was 0.841, the surviving fraction ([1]; 12.3 nM) was 1.05 and the surviving fraction ([1]; 37 nM) was 1.04. The surviving fraction ([1]; 111.1 nM) was 1.09, the surviving fraction ([1]; 333.3 nM) was 0.968 and the surviving fraction ([1]; 1000 nM) was 0.851. It also gave a surviving fraction ([1]; 3000 nM) of 0.227, a surviving fraction ([2]; 4.1 nM) of 0.997 and a surviving fraction ([2]; 12.3 nM) of 1. It also gave a surviving fraction ([2]; 37 nM) of 1.02, a surviving fraction ([2]; 111.1 nM) of 0.947 and a surviving fraction ([2]; 333.3 nM) of 0.979. It also gave a surviving fraction ([2]; 1000 nM) of 0.84, a surviving fraction ([2]; 3000 nM) of 0.255 and a surviving fraction ([3]; 4.1 nM) of 1.1. The surviving fraction ([3]; 12.3 nM) was 0.95, the surviving fraction ([3]; 37 nM) was 0.888 and the surviving fraction ([3]; 111.1 nM) was 0.581. It also gave a surviving fraction ([3]; 333.3 nM) of 0.418, a surviving fraction ([3]; 1000 nM) of 0.177 and a surviving fraction ([3]; 3000 nM) of 0.00427. The surviving fraction ([4]; 4.1 nM) was 1.17, the surviving fraction ([4]; 12.3 nM) was 0.911 and the surviving fraction ([4]; 37 nM) was 1.03. For the same molecule, the surviving fraction ([4]; 111.1 nM) was 1.13, the surviving fraction ([4]; 333.3 nM) was 1.09 and the surviving fraction ([4]; 1000 nM) was 0.723. It also gave a surviving fraction ([4]; 3000 nM) of 0.00651, a surviving fraction ([5]; 4.1 nM) of 0.913 and a surviving fraction ([5]; 12.3 nM) of 1.08. For the same molecule, the surviving fraction ([5]; 37 nM) was 1.18, the surviving fraction ([5]; 111.1 nM) was 1.01 and the surviving fraction ([5]; 333.3 nM) was 0.92. It also gave a surviving fraction ([5]; 1000 nM) of 0.993, a surviving fraction ([5]; 3000 nM) of 0.269 and a surviving fraction ([6]; 4.1 nM) of 0.985. For the same molecule, the surviving fraction ([6]; 12.3 nM) was 0.96, the surviving fraction ([6]; 37 nM) was 1.12 and the surviving fraction ([6]; 111.1 nM) was 0.993. For the same molecule, the surviving fraction ([6]; 333.3 nM) was 0.966, the surviving fraction ([6]; 1000 nM) was 0.884 and the surviving fraction ([6]; 3000 nM) was 0.0901. The surviving fraction ([7]; 4.1 nM) was 1.13, the surviving fraction ([7]; 12.3 nM) was 1.02 and the surviving fraction ([7]; 37 nM) was 0.955. The surviving fraction ([7]; 111.1 nM) was 0.76, the surviving fraction ([7]; 333.3 nM) was 0.898 and the surviving fraction ([7]; 1000 nM) was 0.909. For the same molecule, the surviving fraction ([7]; 3000 nM) was 0.0719, the phenotypic distance ([8]; 4.1 nM) was 0.698 and the phenotypic distance ([8]; 12.3 nM) was 0.74. The phenotypic distance ([8]; 37 nM) was 0.381, the phenotypic distance ([8]; 111.1 nM) was 0.629 and the phenotypic distance ([8]; 333.3 nM) was 0.569. For the same molecule, the phenotypic distance ([8]; 1000 nM) was 0.919, the phenotypic distance ([8]; 3000 nM) was 5.8 and the phenotypic distance ([9]; 4.1 nM) was 0.692. The phenotypic distance ([9]; 12.3 nM) was 0.512, the phenotypic distance ([9]; 37 nM) was 1.07 and the phenotypic distance ([9]; 111.1 nM) was 0.632. It also gave a phenotypic distance ([9]; 333.3 nM) of 1.15, a phenotypic distance ([9]; 1000 nM) of 2.27 and a phenotypic distance ([9]; 3000 nM) of 5.54. For the same molecule, the phenotypic distance ([10]; 4.1 nM) was 1.07, the phenotypic distance ([10]; 12.3 nM) was 0.679 and the phenotypic distance ([10]; 37 nM) was 0.773. The phenotypic distance ([10]; 111.1 nM) was 1.25, the phenotypic distance ([10]; 333.3 nM) was 1.81 and the phenotypic distance ([10]; 1000 nM) was 2.9. For the same molecule, the phenotypic distance ([10]; 3000 nM) was 11.4, the phenotypic distance ([11]; 4.1 nM) was 1.04 and the phenotypic distance ([11]; 12.3 nM) was 0.586. The phenotypic distance ([11]; 37 nM) was 0.373, the phenotypic distance ([11]; 111.1 nM) was 1.33 and the phenotypic distance ([11]; 333.3 nM) was 1.16. The phenotypic distance ([11]; 1000 nM) was 1.4, the phenotypic distance ([11]; 3000 nM) was 8.52 and the phenotypic distance ([12]; 4.1 nM) was 0.444. For the same molecule, the phenotypic distance ([12]; 12.3 nM) was 0.588, the phenotypic distance ([12]; 37 nM) was 1.03 and the phenotypic distance ([12]; 111.1 nM) was 0.434. It also gave a phenotypic distance ([12]; 333.3 nM) of 1.04, a phenotypic distance ([12]; 1000 nM) of 0.939 and a phenotypic distance ([12]; 3000 nM) of 5.66. For the same molecule, the phenotypic distance ([13]; 4.1 nM) was 0.808, the phenotypic distance ([13]; 12.3 nM) was 0.759 and the phenotypic distance ([13]; 37 nM) was 0.726. It also gave a phenotypic distance ([13]; 111.1 nM) of 0.677, a phenotypic distance ([13]; 333.3 nM) of 1.12 and a phenotypic distance ([13]; 1000 nM) of 2.3. For the same molecule, the phenotypic distance ([13]; 3000 nM) was 9.6, the phenotypic distance ([14]; 4.1 nM) was 0.766 and the phenotypic distance ([14]; 12.3 nM) was 0.505. For the same molecule, the phenotypic distance ([14]; 37 nM) was 0.606, the phenotypic distance ([14]; 111.1 nM) was 1.02 and the phenotypic distance ([14]; 333.3 nM) was 0.835. It also gave a phenotypic distance ([14]; 1000 nM) of 1.28 and a phenotypic distance ([14]; 3000 nM) of 5.55.
